Consider twelve compounds from PubChem BioAssay (NCI).

Test systems include ACHN renal; CAKI-1 renal; UACC-257 melanoma; SW-620 colon; SR leukemia; UO-31 renal; MDA-MB-435; SNB-75 CNS; NCI-H226 lung; PC-3 prostate; COLO 205 colon; IGROV1 ovarian; MCF7 breast; SK-MEL-28 melanoma; SK-MEL-2 melanoma; SF-268 CNS; NCI-H460 lung; OVCAR-3 ovarian.
Assay in all cases: NCI anticancer screen, dose series, 48 h

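Growth conditions: 96-well plates. Treatment: test compound, 48 hours, 5 concentrations. Analysis: linear interpolation between bracketing concentrations; unreached endpoints set to highest concentration. At the TGI there is no net growth.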

With `CC1OC(OC2C(O)COC(OC3C(C)OC(OC4C(OC(=O)[C@]56CCC(C)(C)C[C@@H]5C5=CCC7[C@@]8(C)C[C@H](O)[C@H](OC9OC(CO)C(O)C(OC%10OC(CO)C(O)C(O)C%10O)C9O)[C@@](C)(CO)[C@@H]8CC[C@@]7(C)[C@]5(C)CC6)OCC(O)C4O)C(O)C3OC3OCC(O)C(O)C3O)C2O)C(O)C(O)C1O` (stereo partly specified), the TGI came to 19.5 µM with ACHN renal; 16.3 µM with CAKI-1 renal; 16.8 µM in the assay with UACC-257 melanoma; 20.6 µM in the assay with SW-620 colon; 27 µM in the assay with SR leukemia; 9.92 µM in the assay with UO-31 renal. In addition, the TGI in the assay with MDA-MB-435 worked out at 7.72 µM; in the assay on SNB-75 CNS, 30.9 µM; in the assay on NCI-H226 lung it was 25.1 µM; with PC-3 prostate, 16.1 µM; with COLO 205 colon, 3.82 µM; with IGROV1 ovarian, 24.5 µM. For the same compound, the TGI amounted to 43.5 µM with MCF7 breast; 5.17 µM in the assay with SK-MEL-28 melanoma; 11.7 µM with SK-MEL-2 melanoma; 30 µM with SF-268 CNS; 34.8 µM in the assay with NCI-H460 lung; 27.2 µM in the assay on OVCAR-3 ovarian.
`Cc1c[nH]c(C(=O)O)c1-c1ccc2c(-c3ccccc3)nc3ccccc3n12`: the TGI in the assay with ACHN renal is over 100 µM; with CAKI-1 renal it was over 100 µM; in the assay on UACC-257 melanoma, over 100 µM; in the assay with SW-620 colon, over 100 µM; in the assay on SR leukemia, 66.2 µM; in the assay with UO-31 renal, over 100 µM. The TGI with MDA-MB-435 is 78.1 µM; in the assay with SNB-75 CNS, 56.4 µM; in the assay with NCI-H226 lung, 57.8 µM; with PC-3 prostate it was over 100 µM; in the assay on COLO 205 colon it was over 100 µM; with IGROV1 ovarian it was 77.8 µM. The TGI in the assay with MCF7 breast is over 100 µM; with SK-MEL-28 melanoma, 76.3 µM; with SK-MEL-2 melanoma, 55.1 µM; with SF-268 CNS, over 100 µM; in the assay on NCI-H460 lung, over 100 µM; with OVCAR-3 ovarian, 37.4 µM.
As to `CCn1c(=O)ccc2ccc(N(CCO)CCO)nc21`, the TGI in the assay on ACHN renal, in the assay on CAKI-1 renal, with UACC-257 melanoma, in the assay with SW-620 colon, in the assay on SR leukemia and in the assay on UO-31 renal was over 100 µM throughout. The TGI with MDA-MB-435, in the assay with SNB-75 CNS, in the assay on NCI-H226 lung, with PC-3 prostate, in the assay on COLO 205 colon and in the assay on IGROV1 ovarian was over 100 µM in each case. Besides, the TGI in the assay on MCF7 breast, with SK-MEL-28 melanoma, in the assay on SK-MEL-2 melanoma, with SF-268 CNS, in the assay on NCI-H460 lung and with OVCAR-3 ovarian was over 100 µM throughout.
As for `N#CC(C#N)=C(N)/C(C#N)=C/c1cc(O)c(O)c(Br)c1`, the TGI in the assay on ACHN renal, in the assay with CAKI-1 renal, in the assay with UACC-257 melanoma, in the assay with SW-620 colon, with SR leukemia and with UO-31 renal was over 100 µM throughout. Also, the TGI was over 100 µM in the assay with MDA-MB-435; over 100 µM with SNB-75 CNS; over 79.1 µM in the assay with NCI-H226 lung; over 100 µM in the assay with PC-3 prostate; over 100 µM in the assay on COLO 205 colon; over 100 µM in the assay with IGROV1 ovarian. The TGI in the assay with MCF7 breast is over 100 µM; in the assay on SK-MEL-28 melanoma, over 100 µM; in the assay on SK-MEL-2 melanoma, over 100 µM; in the assay on SF-268 CNS it was over 100 µM; in the assay on NCI-H460 lung it was over 100 µM; in the assay on OVCAR-3 ovarian it was 93.6 µM.
With `Cc1ccc2c(c1)[nH]c(=S)n2C=C1C(=O)CC(C)(C)CC1=O`, the TGI in the assay with ACHN renal, with CAKI-1 renal, in the assay on UACC-257 melanoma, in the assay on SW-620 colon, in the assay on SR leukemia and with UO-31 renal was over 100 µM in each case. For the same compound, the TGI in the assay on MDA-MB-435, in the assay with SNB-75 CNS, with NCI-H226 lung, in the assay with PC-3 prostate, in the assay on COLO 205 colon and in the assay with IGROV1 ovarian was over 100 µM in each case. Besides, the TGI in the assay with MCF7 breast, in the assay on SK-MEL-28 melanoma, in the assay on SK-MEL-2 melanoma, in the assay with SF-268 CNS, in the assay on NCI-H460 lung and in the assay with OVCAR-3 ovarian was over 100 µM each time.
For the compound `CC1=CCC[C@@H]2[C@@](C)(Cc3cc(O)ccc3O)[C@H](C)CC[C@@]12C`, the TGI was 18 µM with ACHN renal; 25.7 µM with CAKI-1 renal; 26.2 µM in the assay on UACC-257 melanoma; 25.2 µM in the assay on SW-620 colon; 12.6 µM in the assay on SR leukemia; 12.8 µM in the assay on UO-31 renal. The TGI came to 19.5 µM with MDA-MB-435; 17.9 µM with SNB-75 CNS; 39.3 µM in the assay on NCI-H226 lung; 14.1 µM with PC-3 prostate; 36.5 µM in the assay on COLO 205 colon; 18.2 µM in the assay with IGROV1 ovarian. For the same compound, the TGI in the assay with MCF7 breast stood at 18.7 µM; in the assay with SK-MEL-28 melanoma, 25.5 µM; in the assay on SK-MEL-2 melanoma, 27.9 µM; in the assay on SF-268 CNS it was 24 µM; in the assay on NCI-H460 lung it was 22.4 µM; with OVCAR-3 ovarian, 15.3 µM.
On to `CCCC(=O)OC[n+]1cccc(-c2c(COC(=O)NC(C)C)c(COC(=O)NC(C)C)c3n2CCC3)c1`, for which the TGI in the assay with ACHN renal is over 100 µM; in the assay on CAKI-1 renal it was 46 µM; in the assay with UACC-257 melanoma it was over 100 µM; in the assay with SW-620 colon, over 100 µM; with SR leukemia, over 100 µM; with UO-31 renal, over 100 µM. For the same compound, the TGI with MDA-MB-435, with SNB-75 CNS, in the assay on NCI-H226 lung, in the assay on PC-3 prostate, in the assay on COLO 205 colon and in the assay with IGROV1 ovarian was over 100 µM in each case. The TGI in the assay on MCF7 breast, with SK-MEL-28 melanoma, with SK-MEL-2 melanoma, in the assay on SF-268 CNS, with NCI-H460 lung and in the assay with OVCAR-3 ovarian was over 100 µM throughout.
`COC(=O)C(Cc1ccccc1I)C1=CCC2(CC1)OCCO2` (stereo unspecified): the TGI with ACHN renal is over 100 µM; in the assay on CAKI-1 renal, over 100 µM; in the assay with UACC-257 melanoma, 97.1 µM; in the assay with SW-620 colon, over 100 µM; in the assay on SR leukemia, 52 µM; in the assay with UO-31 renal, 66.3 µM. For the same compound, the TGI is 44.8 µM with MDA-MB-435; 57.4 µM in the assay with SNB-75 CNS; over 100 µM in the assay on NCI-H226 lung; 93.8 µM in the assay with PC-3 prostate; 63 µM in the assay on COLO 205 colon; over 100 µM with IGROV1 ovarian. Further, the TGI is 92.7 µM in the assay on MCF7 breast; over 100 µM in the assay with SK-MEL-28 melanoma; 75.4 µM with SK-MEL-2 melanoma; over 100 µM with SF-268 CNS; over 100 µM with NCI-H460 lung; 81.3 µM with OVCAR-3 ovarian.
Regarding `CC(=O)NCCc1c[nH]c2ccc(Cl)cc12`, the TGI in the assay with ACHN renal, in the assay with CAKI-1 renal, in the assay with UACC-257 melanoma, with SW-620 colon, with SR leukemia and in the assay on UO-31 renal was over 100 µM in each case. Moreover, the TGI with MDA-MB-435, with SNB-75 CNS, in the assay with NCI-H226 lung, with PC-3 prostate, in the assay on COLO 205 colon and with IGROV1 ovarian was over 100 µM in each case. Besides, the TGI in the assay on MCF7 breast, with SK-MEL-28 melanoma, with SK-MEL-2 melanoma, in the assay with SF-268 CNS, with NCI-H460 lung and in the assay with OVCAR-3 ovarian was over 100 µM in each case.
On to `CN(C)CCCNc1nnc(NCCCN(C)C)c2c(=O)c3sccc3[nH]c12`, for which the TGI in the assay with ACHN renal is over 100 µM; with CAKI-1 renal, over 48.9 µM; in the assay with UACC-257 melanoma, over 100 µM; with SW-620 colon, over 72.2 µM; in the assay with SR leukemia it was over 30.5 µM; in the assay with UO-31 renal, 9.15 µM. The TGI in the assay on MDA-MB-435 was over 54.7 µM; in the assay on SNB-75 CNS, 19.6 µM; with NCI-H226 lung it was 39.1 µM; with PC-3 prostate, over 61.4 µM; in the assay with COLO 205 colon, over 20.2 µM; with IGROV1 ovarian it was over 100 µM. Besides, the TGI was over 100 µM in the assay with MCF7 breast; over 84.9 µM with SK-MEL-28 melanoma; 37.8 µM in the assay with SK-MEL-2 melanoma; 25.7 µM in the assay with SF-268 CNS; 20.7 µM in the assay with NCI-H460 lung; over 100 µM in the assay with OVCAR-3 ovarian.
Take `O=C(CCc1ccc(O)c(O)c1)NCCc1cc(OCc2ccccc2)cc(OCc2ccccc2)c1`: the TGI in the assay with ACHN renal is 19.3 µM; in the assay on CAKI-1 renal, 17.7 µM; with UACC-257 melanoma it was over 100 µM; in the assay on SW-620 colon, 76.1 µM; in the assay with SR leukemia it was 7.18 µM; in the assay with UO-31 renal, 12.6 µM. The TGI in the assay on MDA-MB-435 came to 60.8 µM; in the assay on SNB-75 CNS it was 22.2 µM; in the assay on NCI-H226 lung it was 48.2 µM; in the assay with PC-3 prostate, 29.8 µM; with COLO 205 colon, 14.6 µM; with IGROV1 ovarian, 22.5 µM. The TGI with MCF7 breast is 32.2 µM; in the assay on SK-MEL-28 melanoma it was 46.3 µM; in the assay on SK-MEL-2 melanoma, 42 µM; with SF-268 CNS, 42.3 µM; in the assay with NCI-H460 lung, 20.2 µM; in the assay on OVCAR-3 ovarian it was over 100 µM.
On to `Cc1c(CCCl)c(N=[N+]=[N-])n2c(nc3ccccc32)c1C#N`, for which the TGI in the assay on ACHN renal was found to be 2.85 µM; with CAKI-1 renal, 3 µM; in the assay on UACC-257 melanoma, 3.53 µM; in the assay on SW-620 colon, 1.21 µM; in the assay on SR leukemia, 1.08 µM; in the assay on UO-31 renal, 3.32 µM. Besides, the TGI with MDA-MB-435 came to 2.73 µM; in the assay on SNB-75 CNS it was 2.87 µM; in the assay with NCI-H226 lung, 4.29 µM; with PC-3 prostate it was 2.72 µM; with COLO 205 colon, 2.66 µM; in the assay with IGROV1 ovarian, 1.64 µM. In addition, the TGI in the assay on MCF7 breast was found to be 2.14 µM; with SK-MEL-28 melanoma, 3.27 µM; with SK-MEL-2 melanoma, 3.48 µM; in the assay with SF-268 CNS it was 5.67 µM; in the assay with NCI-H460 lung, 3.32 µM; in the assay on OVCAR-3 ovarian it was 3.15 µM.
